This is an account of results in patent US20240025906A1 (NEURON23, INC., priority 2022, published 2024).

Assay [1] concerns the target T1, TYK2 JH2 (Homo sapiens, UniProt P29597).
T1 construct: purchased DiscoverX (KINOMEscan KdELECT service); host or cells: E. coli BL21-derived (T7 phage display) or HEK-293
As to the kind of experiment: TYK2 JH2 binding assay (KINOMEscan KdELECT competitive binding). As to conditions: TYK2 JH2 domain, KINOMEscan KdELECT (Assay A); read-out: Biochemical TYK2_DiscoverX_JH2_BND_Kd. The method, boiled down:
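Beads carrying a biotinylated ligand were mixed with tagged JH2 kinase and compound (11 points, 3-fold steps, 0.9% DMSO) and shaken 1 h at room temperature. After washing, kinase was released with 0.5 μM untagged ligand over 30 min and measured by qPCR to derive Kd.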

Assay [2] has as its system JAK1/TYK2 pSTAT5 (Tyr694/699) in THP-1 cell line. As to the kind of experiment: IFNa-stimulated JAK1/TYK2 pSTAT5 (Tyr694/699) inhibition cellular assay, AlphaLISA. The assay is classed as cell-based. To be noted: Homo sapiens; THP-1 cells, IFNa-stimulated, AlphaLISA (Assay B); read-out: Cellular_THP1_IFNa-pSTATS_TYK2. The method, boiled down:
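THP-1, 2e4 cells/well, HBSS; cpd 1 h 37 °C (10000–0.04 nM final, 6-fold, 8 pt); IFNa 100 ng/mL added, 30 min; lyse, freeze −80 °C; pSTAT5 AlphaLISA, 615 nm; 4PL IC50, bottom fixed 0, slope −1.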

T1 sequence (P29597 589-875 limits assumed): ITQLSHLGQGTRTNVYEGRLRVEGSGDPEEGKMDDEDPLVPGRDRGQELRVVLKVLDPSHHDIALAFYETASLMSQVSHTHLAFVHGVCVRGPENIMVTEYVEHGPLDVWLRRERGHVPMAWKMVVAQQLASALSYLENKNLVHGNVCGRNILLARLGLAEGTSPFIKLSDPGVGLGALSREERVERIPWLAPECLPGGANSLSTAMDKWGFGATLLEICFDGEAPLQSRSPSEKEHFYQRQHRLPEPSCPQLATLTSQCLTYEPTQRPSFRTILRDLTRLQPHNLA

Regarding `CNc1ncc(C#Cc2ccc(OC(C)CC3COC3)cc2)c2cc(NC(=O)C3CC3)ncc12` (stereo not shown) [Example 713, N-(8-(methylamino)-5-((4-((1-(oxetan-3-yl)propan-2-yl)oxy)phenyl)ethynyl)-2,7-naphthyridin-3-yl)cyclopropanecarboxamide], the Kd in assay [1] was ≤ 0.1 µM. For the same compound, the IC50 in assay [2] is ≤ 0.5 µM.
For `CNc1ncc(C#Cc2ccc(OCC(C)(C)O)cc2)c2cc(NC(=O)C3CC3)ncc12` [Example 714, N-(5-((4-(2-hydroxy-2-methylpropoxy)phenyl)ethynyl)-8-(methylamino)-2,7-naphthyridin-3-yl)cyclopropanecarboxamide] the same measures were ≤ 0.1 µM and ≤ 0.5 µM.
Taken in the same sequence, the figures for `CNc1ncc(C#Cc2ccc(OC3CN(S(C)(=O)=O)C3)cc2)c2cc(NC(=O)C3CC3)ncc12` [Example 715, N-(8-(methylamino)-5-((4-((1-(methylsulfonyl)azetidin-3-yl)oxy)phenyl)ethynyl)-2,7-naphthyridin-3-yl)cyclopropanecarboxamide] were ≤ 0.1 µM and ≤ 0.5 µM.
On to `CNc1ncc(C#Cc2ccc3cc(COC)n(C)c3c2)c2cc(NC(=O)C3CC3)ncc12` [Example 716, N-(5-((2-(methoxymethyl)-1-methyl-1H-indol-6-yl)ethynyl)-8-(methylamino)-2,7-naphthyridin-3-yl)cyclopropanecarboxamide], for which, in assay [1], the Kd is ≤ 0.1 µM. For the same compound, the IC50 in assay [2] was ≤ 0.5 µM.
For `CNc1ncc(C#Cc2ccc3oc(COC)cc3c2)c2cc(NC(=O)C3CC3)ncc12` [Example 717, N-(5-((2-(methoxymethyl)benzofuran-5-yl)ethynyl)-8-(methylamino)-2,7-naphthyridin-3-yl)cyclopropanecarboxamide] the same measures were ≤ 0.1 µM and ≤ 0.5 µM.
Taken in the same sequence, the figures for `CNc1ncc(C#Cc2cc(F)c(OC)cn2)c2cc(NC(=O)C3CC3)ncc12` [Example 718, N-(5-((4-fluoro-5-methoxypyridin-2-yl)ethynyl)-8-(methylamino)-2,7-naphthyridin-3-yl)cyclopropanecarboxamide] were ≤ 0.1 µM and ≤ 0.5 µM.
For `CNc1ncc(C#Cc2ccc3nc(OC)n(C)c3c2)c2cc(NC(=O)C3CC3)ncc12` [Example 719, N-(5-((2-methoxy-1-methyl-1H-benzo[d]imidazol-6-yl)ethynyl)-8-(methylamino)-2,7-naphthyridin-3-yl)cyclopropanecarboxamide] the same measures were ≤ 0.1 µM and ≤ 0.5 µM.
On to `CNc1ncc(C#Cc2ccc3nc4n(c3c2)CCOC4)c2cc(NC(=O)C3CC3)ncc12` [Example 720, N-(5-((3,4-dihydro-1H-benzo[4,5]imidazo[2,1-c][1,4]oxazin-7-yl)ethynyl)-8-(methylamino)-2,7-naphthyridin-3-yl)cyclopropanecarboxamide], for which the Kd in assay [1] was ≤ 0.1 µM. Moreover, the IC50 in assay [2] was ≤ 0.5 µM.
For `CNc1ncc(C#Cc2cc3c(F)cccn3n2)c2cc(NC(=O)C3CC3)ncc12` [Example 721, N-(5-((4-fluoropyrazolo[1,5-a]pyridin-2-yl)ethynyl)-8-(methylamino)-2,7-naphthyridin-3-yl)cyclopropanecarboxamide] the same measures were ≤ 0.1 µM and ≤ 0.5 µM.
Take `[2H]C([2H])([2H])Oc1ccc(C#Cc2cnc(NC)c3cnc(NC(=O)C4CC4)cc23)nc1` [Example 722, N-(5-((5-(methoxy-d3)pyridin-2-yl)ethynyl)-8-(methylamino)-2,7-naphthyridin-3-yl)cyclopropanecarboxamide]: in assay [1], the Kd is ≤ 0.1 µM. The IC50 in assay [2] was ≤ 0.5 µM.
For `CNc1ncc(C#Cc2ccc3c(cnn3C(F)F)c2)c2cc(NC(=O)C3CC3)ncc12` [Example 723, N-(5-((1-(difluoromethyl)-1H-indazol-5-yl)ethynyl)-8-(methylamino)-2,7-naphthyridin-3-yl)cyclopropanecarboxamide] the same measures were ≤ 0.1 µM and ≤ 0.5 µM.
Taken in the same sequence, the figures for `CNc1ncc(C#Cc2ccncc2CCO)c2cc(NC(=O)C3CC3)ncc12` [Example 724, N-(5-((3-(2-hydroxyethyl)pyridin-4-yl)ethynyl)-8-(methylamino)-2,7-naphthyridin-3-yl)cyclopropanecarboxamide] were ≤ 0.1 µM and ≤ 0.5 µM.
With `CNc1ncc(C#Cc2ccc3nc(COC)sc3c2)c2cc(NC(=O)C3CC3)ncc12` [Example 725, N-(5-((2-(methoxymethyl)benzo[d]thiazol-6-yl)ethynyl)-8-(methylamino)-2,7-naphthyridin-3-yl)cyclopropanecarboxamide], the Kd in assay [1] was ≤ 0.1 µM. For the same compound, the IC50 in assay [2] is ≤ 0.5 µM.
With `CNc1ncc(C#Cc2ccc(N3CCC3)cn2)c2cc(NC(=O)C3CC3)ncc12` [Example 726, N-(5-((5-(azetidin-1-yl)pyridin-2-yl)ethynyl)-8-(methylamino)-2,7-naphthyridin-3-yl)cyclopropanecarboxamide], the Kd in assay [1] is ≤ 0.1 µM. The IC50 in assay [2] was ≤ 0.5 µM.
Taken in the same sequence, the figures for `CNc1ncc(C#Cc2ccc(N3CCC3COC)cn2)c2cc(NC(=O)C3CC3)ncc12` (stereo not shown) [Example 727, N-(5-((5-(2-(methoxymethyl)azetidin-1-yl)pyridin-2-yl)ethynyl)-8-(methylamino)-2,7-naphthyridin-3-yl)cyclopropanecarboxamide] were ≤ 0.1 µM and ≤ 0.5 µM.
Taken in the same sequence, the figures for `CNc1ncc(C#Cc2ccc(CN3CCOCC3)cn2)c2cc(NC(=O)C3CC3)ncc12` [Example 728, N-(8-(methylamino)-5-((5-(morpholinomethyl)pyridin-2-yl)ethynyl)-2,7-naphthyridin-3-yl)cyclopropanecarboxamide] were ≤ 0.1 µM and ≤ 0.5 µM.
For `CNc1ncc(C#Cc2ccc(C(C)(F)F)cn2)c2cc(NC(=O)C3CC3)ncc12` [Example 729, N-(5-((5-(1,1-difluoroethyl)pyridin-2-yl)ethynyl)-8-(methylamino)-2,7-naphthyridin-3-yl)cyclopropanecarboxamide] the same measures were ≤ 0.1 µM and ≤ 0.5 µM.
Take `CNc1ncc(C#Cc2cc(C#N)c(OC)cn2)c2cc(NC(=O)C3CC3)ncc12` [Example 730, N-(5-((4-cyano-5-methoxypyridin-2-yl)ethynyl)-8-(methylamino)-2,7-naphthyridin-3-yl)cyclopropanecarboxamide]: the Kd in assay [1] is ≤ 0.1 µM. Moreover, in assay [2], the IC50 was > 0.5 µM.
Taken in the same sequence, the figures for `CNc1ncc(C#Cc2ccc(OCC(C)(C)F)cc2)c2cc(NC(=O)C3CC3)ncc12` [Example 731, N-(5-((4-(2-fluoro-2-methylpropoxy)phenyl)ethynyl)-8-(methylamino)-2,7-naphthyridin-3-yl)cyclopropanecarboxamide] were ≤ 0.1 µM and > 0.5 µM.
For `CNc1ncc(C#Cc2ccc(OCF)cn2)c2cc(NC(=O)C3CC3)ncc12` [Example 732, N-(5-((5-(fluoromethoxy)pyridin-2-yl)ethynyl)-8-(methylamino)-2,7-naphthyridin-3-yl)cyclopropanecarboxamide] the same measures were ≤ 0.1 µM and ≤ 0.5 µM.
Regarding `CNc1ncc(C#Cc2ccc(N3CC4CN(C)CC(C3)O4)cn2)c2cc(NC(=O)C3CC3)ncc12` [Example 733, N-(5-((5-(7-methyl-9-oxa-3,7-diazabicyclo[3.3.1]nonan-3-yl)pyridin-2-yl)ethynyl)-8-(methylamino)-2,7-naphthyridin-3-yl)cyclopropanecarboxamide], the Kd in assay [1] is ≤ 0.1 µM. Further, the IC50 in assay [2] was ≤ 0.5 µM.
Taken in the same sequence, the figures for `CNc1ncc(C#Cc2ccc(N3CC4CN(C)CC(C3)O4)cc2)c2cc(NC(=O)C3CC3)ncc12` [Example 734, N-(5-((4-(7-methyl-9-oxa-3,7-diazabicyclo[3.3.1]nonan-3-yl)phenyl)ethynyl)-8-(methylamino)-2,7-naphthyridin-3-yl)cyclopropanecarboxamide] were ≤ 0.1 µM and ≤ 0.5 µM.
For `CNc1ncc(C#Cc2ccc(OC3CN(C(C)=O)C3)cn2)c2cc(NC(=O)C3CC3)ncc12` [Example 735, N-(5-((5-((1-acetylazetidin-3-yl)oxy)pyridin-2-yl)ethynyl)-8-(methylamino)-2,7-naphthyridin-3-yl)cyclopropanecarboxamide] the same measures were ≤ 0.1 µM and ≤ 0.5 µM.
For `CNc1ncc(C#Cc2ccc(OC3CN(C(C)=O)C3)cn2)c2cc(NC(=O)C3(F)CC3)ncc12` [Example 736, N-(5-((5-((1-acetylazetidin-3-yl)oxy)pyridin-2-yl)ethynyl)-8-(methylamino)-2,7-naphthyridin-3-yl)-1-fluorocyclopropane-1-carboxamide] the same measures were ≤ 0.1 µM and ≤ 0.5 µM.
With `CNc1ncc(C#Cc2ccc(NC(=O)COC)cc2)c2cc(NC(=O)C3CC3)ncc12` [Example 737, N-(5-((4-(2-methoxyacetamido)phenyl)ethynyl)-8-(methylamino)-2,7-naphthyridin-3-yl)cyclopropanecarboxamide], the Kd in assay [1] was ≤ 0.1 µM. Besides, the IC50 in assay [2] is ≤ 0.5 µM.
For the compound `CNc1ncc(C#Cc2ccc(P(C)(C)=O)cn2)c2cc(NC(=O)C3CC3)ncc12` [Example 738, N-(5-((5-(dimethylphosphoryl)pyridin-2-yl)ethynyl)-8-(methylamino)-2,7-naphthyridin-3-yl)cyclopropanecarboxamide], the Kd in assay [1] was ≤ 0.1 µM. Besides, the IC50 in assay [2] was ≤ 0.5 µM.
